From patent publication US20240400604A1, “NUCLEOSIDE TRIPHOSPHATE PHOTOAFFINITY PROBE, METHOD FOR PREPARING SAME, AND APPLICATIONS THEREOF” (SHANDONG UNIVERSITY, priority 2023, published 2024)

What was measured:
[1] = Stability analysis of the probes under three pH conditions with HPLC; assay type: physicochemical; details: acidic condition with trifluoroacetic acid (pH=3), 0.4 mM probe, 37° C.
Protocol: Probes were incubated with 0.4 mM final concentration in different buffer at 37° C. for different time, and 10 μL of solution was taken out at each time point for HPLC analysis. A analytical column (Welch, Ultimate XB-C18, 5 μm, 4.6×250 mm) was used for the analysis, and untreated probes were used as controls. The mobile phase A was 50 mM […] (TEAA) buffer (pH=8), the mobile phase B was 50 mM TEAA in 30% ACN, the flow rate was 1 mL/min, the detection wavelength was 252 nm, and the column temperature was 30° C. Gradient elution conditions were as follows: 0-5 minutes, 5% B; 5-10 minutes, 5-30% B; 10-30 minutes, 30-40% B; 30-35 minutes, 40-100% B; 35-40 minutes, 100% B; 45-50 minutes, 5% B.

[2] = test system: GTP-binding proteins in HEK 293T cell lysates; test: In-gel fluorescence imaging of HEK 293T cell lysate labeled with the GTP probes
Protocol: Appropriate amount cells were incubated on ice for 30 min in 1% lysis buffer (1% Triton X-100, 50 mM HEPES (pH 7.4), 150 mM NaCl, supplemented with phosphatase inhibitor A, phosphatase inhibitor B, and protease inhibitor right before use) at 5-10 times the cell volume. Vortexing for 5 seconds every 10 minutes. The cell lysates were centrifuged at 12,000 rpm at 4° C. for 30 min, and the supernatants were passed through an Amersham NAP-5 column to remove endogenous nucleosides. The proteins were quantified using a Bradford protein assay kit. Approximately 100 μg protein was diluted with 0.1% lysis buffer (0.1% Triton X-100, 50 mM HEPES, 150 mM sodium chloride). To the solution was added 1 mM magnesium chloride, the GTP probe and competitors to designated concentrations. The final volume for the reaction was 100 μL and the final protein concentration was […]. After incubated on ice, the solution was irradiated with 365-nm UV light for 30 min. To the solution were added freshly prepared tris-(2-carboxyethyl)phosphine (TCEP) until its concentration reached 1 mM, and a CuAAC reaction mixture to reach a final concentration of 1 mM CuSO4, 0.1 mM tris[(1-benzyl-1H-1,2,3-triazol-4-yl)methyl]amine (TBTA), and 0.1 mM rhodamine β-PEG3-azide. The mixture was incubated at room temperature for 2 hrs and then precipitated in a solution of chloroform: methanol: water (4:3:1, v/v). After washing with cold methanol and air dried, the protein pellet was dissolved in 30 μL 4% SDS buffer (4% SDS, 50 mM HEPES (pH 7.4), 150 mM NaCl, 50 mM Trolamine). The protein concentration was determined using a BCA protein assay kit. A solution of approximately 20 μg proteins was added 4×loading buffer (0.25M Trometamol, pH=6.8, 4% SDS, 40% Glycerol, 0.02% bromophenol blue, add 200 μL 2-Mercaptoethanol to 800 μL buffer right before use), boiled at 95° C. for 5 min and loaded onto an SDS-PAGE gel (4% stacking gel, 10% separating gel). Then perform SDS-PAGE separation at a constant voltage of 90 V for about 110 minutes. At the end of electrophoresis, cut the separation gel and imaged with an Amersham Imager 600 (GE Healthcare) at 520 nm. The gel was then stained with Coomassie Brilliant Blue staining solution (0.1% Coomassie brilliant blue, 10% acetic acid, 50% methanol) for 30 min and destained with destaining solution (10% acetic acid, 30% methanol) to remove background color.

[3] = test system: GTP-binding proteins in HEK 293T cell lysates; test: Proteomic LC-MS/MS analysis of HEK 293T cell lysate labeled with GTP probes; parameters: species or system human
Protocol: Under optimized conditions, HEK 293T cell lysates were labeled using the GTP photoaffinity probes. Peptide samples were prepared via the On-Beads enzymatic digestion method for proteomic study. Approximately 1 mg of proteins was labeled with 0.1 mM GTP probe and irradiated with 365-nm UV light for 30 min. To the solution were added freshly prepared tris-(2-carboxyethyl)phosphine (TCEP) until its concentration reached 1 mM, and a CuAAC reaction mixture to reach a final concentration of 1 mM CuSO4, 0.1 mM tris[(1-benzyl-1H-1,2,3-triazol-4-yl)methyl]amine (TBTA), and 0.5 mM biotin-PEG3-azide (for GTP-O probe labeled samples), or 0.5 mM biotin-DADPS-azide (for GTP-N probe labeled samples). The mixture was vortexed at room temperature for 2 hours and then precipitated in ice-cold methanol overnight.
The precipitated proteins were dissolved in 100 μL 4% SDS buffer (4% SDS, 150 mM NaCl, 50 mM HEPES, pH=7.4), and diluted with 900 μL SDS-free HEPES buffer (150 mM NaCl, 50 mM HEPES, pH=7.4). High-capacity streptavidin beads (50 μL per sample) were washed three times with 20 times volume of wash buffer (150 mM sodium chloride, 50 mM HEPES, pH=7.4) before adding to the samples. After incubation on a rotary shaker at room temperature for 2 hours, non-specifically bound proteins were washed away in a centrifugal filtration column using 1× PBS containing 1% SDS, 10× PBS, 1× PBS, water, and 50 mM ammonium bicarbonate solution with 8 M urea, each wash using 1 mL of solution for five times. The beads were transferred to a centrifuge tube using 50 mM ammonium bicarbonate solution containing 8 M urea and resuspended with 500 μL of this solution. The disulfide bonds were reduced by adding 20 mM TCEP and incubating at 37° C. for 1 hour, and then alkylated with 50 mM iodacetamide at room temperature in the dark for 30 minutes. After centrifugation at 3000 rpm for 2 minutes, the supernatant was gently removed. The beads were washed with 25 mM ammonium bicarbonate three times, resuspended in 100 μL 25 mM ammonium bicarbonate, and incubated with 1 μg of MS-grade trypsin (1 μg/μL) at 37° C. for 18 hrs.
The beads were washed with 200 μL of 25 mM ammonium bicarbonate solution, then centrifuged at 12000 rpm for 2 minutes to collect the supernatant. The procedure was repeated 6 times, and the supernatants were combined to obtain sample 1 (peptides without probe modification). For GTP-O probe labeled samples, the beads were resuspended in 200 μL of 70% acetonitrile solution containing 1% trifluoroacetic acid, vortexed for 5 minutes, then centrifuged at 12000 rpm for 2 minutes to collect the supernatant. The procedure was repeated 5 times, and the supernatants were combined to obtain sample 2 (containing probe-modified peptides). For GTP-N probe labeled samples, the beads were resuspended in 100 μL of 10% formic acid, incubated on a rotary shaker at room temperature for 30 minutes, then centrifuged at 12000 rpm for 2 minutes to collect the supernatant. The procedure was repeated 3 times, and the supernatants were combined. Trifluoroacetic acid was added to a final concentration of 1%, and incubated at 37° C. for 30 minutes to obtain sample 2. The peptide solutions were dried with a centrifugal concentrator and desalted using C18 tips, then frozen at −80° C. until LC-MS/MS detection. Samples were dissolved in 20 μL of pure water, 4 μL of sample 1 and 8 μL of sample 2 were injected for analysis.
An EASY-nLC 1200 liquid chromatography coupled with a Q-Exactive Orbitrap mass spectrometer was employed for LC-MS/MS analysis. A homemade C18 capillary column (inner diameter 75 μm, column length 18 cm) packed with Reprosil-Pur120 C18-AQ (Dr. maisch, particle size […]) was utilized as the separation column. The precolumn (inner diameter 150 μm, column length 4 cm) was packed with Reprosil-Pur120 C18-AQ (Dr. maisch, particle size 5 μm,). The mobile phase A was 0.1% formic acid, while mobile phase B was 0.1% formic acid in 80% acetonitrile, and the flow rate was 300 nL/min. […]

[4] = three biological replicates, 0.1 mM probe, control probe = GTP-ctrl probe

SMILES: C#CCCC1(CCNP(=O)(O)OP(=O)(O)OP(=O)(O)OC[C@H]2O[C@@H](n3cnc4c(=O)[nH]c(N)nc43)C(O)[C@H]2O)N=N1 (stereo partly shown) [GTP-N probe]
- time after which probe decomposed [1]: 0.5 h
- protein labeling (in-gel fluorescence) ([2]; 0.1 mM probe, 1 mM MgCl2, FIG. 10a): stronger protein labeling compared to the GTP-O probe
- probe concentration at which cell lysate is effectively labeled ([2]; FIG. 9a (GTP-N probe), 365 nm UV, in-gel fluorescence): 50 µM
- probe-modified sites on labeled proteins ([3]; LC-MS/MS of sample 2 (probe-modified peptides)): several modified peptides of GTP-binding proteins were identified
- selectivity for annotated GTP-binding proteins ([3]; competition with GTP at 10 times probe concentration, LFQ, three biological replicates): better selectivity than the GTP-O probe
- GTP-binding proteins identified [3, 4]: 115
- total proteins identified [3, 4]: 2461
